Measured values: article PMC3375280 (PLoS ONE, 2012)
Numbering of substitutions follows the chain as printed.

What was measured:
[1] = target: T1, AT1 wild-type (WT) receptor (Rattus norvegicus, UniProt P25095); experiment: 125I-[Sar1,Ile8]AngII competition binding, wild-type receptor; details: for Kd / Kd ratio relative to olmesartan (in parentheses): WT; for Kd: COS1 cell membranes, 100 pM 125I-[Sar1,Ile8]AngII, 1 h 22°C, read-out: Binding affinity (Kd); for Kd ratio relative to olmesartan (in parentheses): compound Kd / olmesartan Kd
T1 construct: expressed in transfected cells; host or cells: COS1
T1 sequence (P25095 1-359): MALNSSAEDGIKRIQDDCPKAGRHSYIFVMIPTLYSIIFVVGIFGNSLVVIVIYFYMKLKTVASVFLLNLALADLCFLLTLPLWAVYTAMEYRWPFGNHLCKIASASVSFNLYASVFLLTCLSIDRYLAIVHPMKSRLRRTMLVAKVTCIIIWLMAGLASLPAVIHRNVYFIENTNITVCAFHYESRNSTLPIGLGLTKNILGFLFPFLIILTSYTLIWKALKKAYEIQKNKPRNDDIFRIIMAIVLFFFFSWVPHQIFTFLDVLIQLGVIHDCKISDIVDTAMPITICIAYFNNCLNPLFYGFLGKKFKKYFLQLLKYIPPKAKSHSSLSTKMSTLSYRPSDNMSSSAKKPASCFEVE
Protocol: (§1) The Kd and Bmax values of receptor binding were determined by ^125I-[Sar^1, Ile^8] […] Membranes expressing the WT or mutant AT1 receptors were incubated with 100 pM ^125I-[Sar^1, Ile^8] […] The binding reaction was terminated by filtering the incubation mixture through Whatman GF/C glass filters, and the residues were extensively washed further with binding buffer. The bound ligand fraction was determined from the counts per minute (cpm) remaining on the membrane. Binding kinetics values were determined as previously described.

[2] = target: T2, AT1 L112A mutant receptor (Rattus norvegicus, UniProt P25095, L112A); experiment: competition binding, L112A mutant; details: for Kd ratio relative to WT (in parentheses): L112A / WT; for Kd: L112A, COS1 membranes, read-out: Binding affinity (Kd)
T2 construct: expressed in transfected cells; host or cells: COS1
T2 sequence (P25095 1-359 L112A): T1 sequence (P25095 1-359) with L112A
Protocol: as §1

[3] = target: T3, AT1 V116A mutant receptor (Rattus norvegicus, UniProt P25095, V116A); experiment: competition binding, V116A mutant; details: for Kd ratio relative to WT (in parentheses): V116A / WT; for Kd: V116A, COS1 membranes, read-out: Binding affinity (Kd)
T3 construct: expressed in transfected cells; host or cells: COS1
T3 sequence (P25095 1-359 V116A): T1 sequence (P25095 1-359) with V116A
Protocol: as §1

[4] = target: T4, AT1 F110A mutant receptor (Rattus norvegicus, UniProt P25095, F110A); experiment: competition binding, F110A mutant; details: for Kd ratio relative to WT (in parentheses): F110A / WT; for Kd: F110A, COS1 membranes, read-out: Binding affinity (Kd)
T4 construct: expressed in transfected cells; host or cells: COS1
T4 sequence (P25095 1-359 F110A): T1 sequence (P25095 1-359) with F110A
Protocol: as §1

[5] = target: T5, AT1 A114G mutant receptor (Rattus norvegicus, UniProt P25095, A114G); experiment: competition binding, A114G mutant; details: for Kd ratio relative to WT (in parentheses): A114G / WT; for Kd: A114G, COS1 membranes, read-out: Binding affinity (Kd)
T5 construct: expressed in transfected cells; host or cells: COS1
T5 sequence (P25095 1-359 A114G): T1 sequence (P25095 1-359) with A114G
Protocol: as §1

[6] = target: T6, AT1 C76A/V116C/C289A mutant receptor (Rattus norvegicus, UniProt P25095, C289A/C76A/V116C); experiment: competition binding, C76A/V116C/C289A mutant; details: for Kd ratio relative to WT (in parentheses): C76A/V116C/C289A / WT; for Kd: C76A/V116C/C289A, COS1 membranes, read-out: Binding affinity (Kd)
T6 construct: expressed in transfected cells; host or cells: COS1 cells (membranes)
T6 sequence (P25095 1-359 C76A/V116C/C289A): T1 sequence (P25095 1-359) with C76A, V116C, C289A
Protocol: as §1

| Kd ratio relative to WT (in parentheses) ([1]; WT / WT) [fold] | Kd [1] [nM] | Kd ratio relative to olmesartan (in parentheses) [1] [fold] | Kd ratio relative to WT (in parentheses) [2] [fold] | Kd ratio relative to WT (in parentheses) ([2]; listed as olmesartan) [fold] | Kd [2] [nM] | Kd ratio relative to WT (in parentheses) [3] [fold] | Kd [3] [nM] | Kd ratio relative to WT (in parentheses) [4] [fold] | Kd [4] [nM] | Kd ratio relative to WT (in parentheses) [5] [fold] | Kd [5] [nM] | Kd ratio relative to WT (in parentheses) [6] [fold] | Kd [6] [nM] | SMILES |
| --- | --- | --- | --- | --- | --- | --- | --- | --- | --- | --- | --- | --- | --- | --- |
| 1.0 | 2.3 ± 0.8 | 1.0 | 12 | > 10 | 27 ± 7 | 3.8 | 8.8 ± 1.2 | 1.1 | 2.6 ± 0.5 | 1.7 | 4 ± 1.4 | 2.7 | 6.2 ± 1.7 | CCCc1nc(C(C)(C)O)c(C(=O)O)n1Cc1ccc(-c2ccccc2-c2nnn[nH]2)cc1 [Olmesartan, olmesartan, reference compound] |
|  | 0.8 ± 0.3 | 0.3 | 54 |  | 43 ± 12 | 3.2 | 2.6 ± 0.7 | 1.5 | 1.2 ± 0.3 | 1.4 | 1.1 ± 0.1 | 3.1 | 2.5 ± 1 | CCCc1nc(C(C)(C)O)c(C(N)=O)n1Cc1ccc(-c2ccccc2-c2nnn[nH]2)cc1 [R239470] |
|  | 48 ± 12 |  | 0.6 |  | 31 ± 5 | 45 | 2150 ± 802 | 1.4 | 68 ± 19 | 3.8 | 183 ± 17 | 0.8 | 39 ± 3 | CCCc1nc(C(C)(C)O)c(C(N)=O)n1Cc1ccc(-c2cc(Cc3ccc(O)cc3)ccc2-c2nnn[nH]2)cc1 [R794847] |
